# According to the supplement of paper PMC10307832:
# Tests used:
# Test in all cases: relative viability (nuclei count vs DMSO), 5 days (fraction); higher = more cells survive
# [1] = compound: CCC1=CN=CN=C1N2CCN(CC2)CC3=NC4=C(N3)C=C(C=C4)C(F)(F)F + CC1(C)CCC(c2ccc(Cl)cc2)=C(CN2CCN(c3ccc(C(=O)NS(=O)(=O)c4ccc(N[C@H](CCN5CCOCC5)CSc5ccccc5)c(S(=O)(=O)C(F)(F)F)c4)cc3)CC2)C1 [Navitoclax] (partner 0.5 µM)
# Summary of the method: (§1)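 Cells from lung cancer lines were seeded into 1536-well plates and, one day later, dosed by pin tool. Treatments were either a single drug or a fixed dose of an anchor drug with five library-drug doses (not always all listed) in √10 steps. After 5 days, nuclei were stained in a one-step fixation (final 0.05% Triton X-100, 1% formaldehyde, 1 ug/ml Hoechst) and counted on 4× images, and relative viability is the treated-to-vehicle nuclei ratio, as the median of duplicate plates.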
# [2] = compound: CCn1c(-c2nonc2N)nc2cnc(Oc3cccc(NC(=O)c4ccc(OCCN5CCOCC5)cc4)c3)cc21 + COc1cccc2cc(-c3nc([C@H]4CC[C@H](C(=O)O)CC4)n4ncnc(N)c34)[nH]c12 [OSI-027] (partner 0.5 µM)
# Summary of the method: as §1
# Mirin + Trametinib = compound: N=C1NC(=O)/C(=C/c2ccc(O)cc2)S1 [Mirin] + CC(=O)Nc1cccc(-n2c(=O)n(C3CC3)c(=O)c3c(Nc4ccc(I)cc4F)n(C)c(=O)c(C)c32)c1 [Trametinib] (partner 0.02 µM)
# Summary of the method: as §1
# Mirin + Linsitinib = compound: N=C1NC(=O)/C(=C/c2ccc(O)cc2)S1 [Mirin] + C[C@]1(O)C[C@@H](c2nc(-c3ccc4ccc(-c5ccccc5)nc4c3)c3c(N)nccn32)C1 [Linsitinib] (partner 1 µM)
# Summary of the method: as §1
Cell Line,relative viability ([1]; first compound 0.04 µM),relative viability ([1]; first compound 0.1265 µM),relative viability ([1]; first compound 0.4 µM),relative viability ([1]; first compound 1.265 µM),relative viability ([1]; first compound 4 µM),relative viability ([2]; first compound 0.04 µM),relative viability ([2]; first compound 0.1265 µM),relative viability ([2]; first compound 0.4 µM),relative viability ([2]; first compound 1.265 µM),relative viability ([2]; first compound 4 µM),relative viability (Mirin + Trametinib; first compound 0.25 µM),relative viability (Mirin + Trametinib; first compound 0.7906 µM),relative viability (Mirin + Trametinib; first compound 2.5 µM),relative viability (Mirin + Trametinib; first compound 7.906 µM),relative viability (Mirin + Trametinib; first compound 25 µM),relative viability (Mirin + Linsitinib; first compound 0.25 µM),relative viability (Mirin + Linsitinib; first compound 0.7906 µM),relative viability (Mirin + Linsitinib; first compound 2.5 µM),relative viability (Mirin + Linsitinib; first compound 7.906 µM),relative viability (Mirin + Linsitinib; first compound 25 µM)
PC-14,1.02,1.03,1.01,0.984,0.982,0.796,0.693,0.586,0.715,0.685,0.788,0.893,0.725,0.725,0.776,0.929,0.959,1.03,0.97,1.08
NCI-H1666,0.975,0.836,0.962,0.817,0.846,1.02,0.995,0.74,0.796,0.668,0.909,0.764,0.77,0.607,0.772,0.734,0.853,0.791,0.646,0.517
NCI-H1944,0.97,0.948,1,–,0.916,0.413,0.397,0.236,0.214,0.236,0.35,0.397,0.387,0.387,0.32,1.11,–,1.25,1.05,0.752
NCI-H2023,0.987,0.941,0.962,1.03,1.12,0.497,0.47,0.261,0.299,0.269,0.716,0.558,0.668,0.56,0.597,0.709,0.674,0.653,0.684,0.522
NCI-H1755,1.01,0.947,0.955,0.606,0.889,0.714,0.738,0.466,0.476,0.45,0.745,0.793,0.755,0.771,0.841,1.03,1.12,1.01,1.06,1.1
NCI-H2347,0.711,0.733,0.783,0.665,0.729,0.502,0.505,0.426,0.334,0.333,0.301,0.313,0.26,0.3,0.274,0.923,1.09,0.98,0.989,0.985
201T,1.23,1.19,1.16,1.17,1.23,0.857,0.773,0.38,0.674,0.806,0.739,0.74,0.77,0.796,0.857,1,1.04,1.01,1.02,1.09
NCI-H1734,0.852,0.839,0.856,–,0.907,0.647,0.591,0.303,0.335,0.319,0.688,0.749,0.646,0.633,0.675,0.851,0.852,0.875,0.739,0.765
NCI-H596,1.01,0.899,0.933,0.944,1,0.755,0.715,0.591,0.528,0.615,0.872,0.77,0.763,0.873,0.835,0.975,0.919,1.03,1.11,0.902
NCI-H1355,0.987,0.919,0.903,0.806,0.973,0.477,0.385,0.197,0.306,0.312,0.457,0.482,0.48,0.374,0.399,0.799,0.852,0.975,0.861,0.747
NCI-H1915,0.819,0.735,0.847,0.722,0.809,0.695,0.626,0.476,0.259,0.252,0.29,0.332,0.28,0.328,0.389,1.12,–,1.12,1.06,1.19
BEN,0.0475,0.075,0.0493,0.0611,0.0644,0.27,0.267,0.243,0.266,0.24,0.942,1.01,1.16,0.825,0.591,0.821,1.37,0.973,0.809,0.502
NCI-H322M,1.26,1.1,1.13,1.29,1.2,0.826,0.667,0.416,0.562,0.611,0.497,0.506,0.555,0.564,0.571,0.891,1.08,0.976,1.04,0.651
SK-MES-1,1.15,1.22,1.07,1.2,1.31,0.651,0.601,0.403,0.386,0.359,0.505,0.569,0.571,0.585,0.716,1.06,1.22,1.18,1.07,1.26
HOP-62,1.06,1.07,1.04,0.898,0.927,0.998,0.734,0.56,0.422,0.469,0.369,0.447,0.355,0.491,0.398,1.09,0.856,0.937,–,0.866
HCC-366,1.07,1.04,1,–,1.05,1.21,0.939,0.203,0.0538,0.0491,0.382,0.348,0.33,0.337,0.28,0.677,0.468,0.903,0.644,0.316

Cell Line,relative viability ([1]; first compound 0.04 µM),relative viability ([1]; first compound 0.1265 µM),relative viability ([1]; first compound 0.4 µM),relative viability ([1]; first compound 1.265 µM),relative viability ([1]; first compound 4 µM),relative viability ([2]; first compound 0.04 µM),relative viability ([2]; first compound 0.1265 µM),relative viability ([2]; first compound 0.4 µM),relative viability ([2]; first compound 1.265 µM),relative viability ([2]; first compound 4 µM),relative viability (Mirin + Trametinib; first compound 0.25 µM),relative viability (Mirin + Trametinib; first compound 0.7906 µM),relative viability (Mirin + Trametinib; first compound 2.5 µM),relative viability (Mirin + Trametinib; first compound 7.906 µM),relative viability (Mirin + Trametinib; first compound 25 µM),relative viability (Mirin + Linsitinib; first compound 0.25 µM),relative viability (Mirin + Linsitinib; first compound 0.7906 µM),relative viability (Mirin + Linsitinib; first compound 2.5 µM),relative viability (Mirin + Linsitinib; first compound 7.906 µM),relative viability (Mirin + Linsitinib; first compound 25 µM)
NCI-H2405,0.86,0.937,0.834,–,0.997,0.763,0.582,0.185,0.326,0.354,0.615,–,0.6,0.594,0.645,0.891,1,0.963,0.895,0.789
LXF-289,1.08,0.912,0.948,0.885,0.896,0.924,0.758,0.208,0.443,0.361,0.694,0.726,0.635,0.665,0.828,0.971,1.09,1,1.03,1.02
NCI-H1793,0.381,0.447,0.363,–,0.435,0.31,0.265,0.194,0.248,0.196,0.497,–,0.39,0.352,0.607,0.816,0.794,0.902,0.947,0.641
LU99A,0.846,0.825,0.864,0.709,0.657,0.298,0.254,0.227,0.259,0.225,0.515,0.496,0.56,0.395,0.55,0.515,0.472,0.508,0.46,0.421
PC-3 [JPC-3],0.912,0.781,0.745,0.733,0.775,0.838,0.802,0.701,0.773,0.656,0.669,0.72,0.7,0.73,0.786,1.01,1.03,0.988,1.07,1.03
NCI-H2085,1.11,1.02,1.21,1.18,0.911,1.02,0.679,0.602,0.664,0.551,0.514,0.465,0.519,0.511,0.59,0.943,1.01,0.898,0.819,0.882
HCC-78,0.654,0.832,0.831,0.476,0.525,0.43,0.429,–,0.574,0.625,0.647,0.715,0.885,0.709,0.72,0.537,0.585,0.519,0.445,0.475
NCI-H1395,1.16,1.14,1.11,0.949,1.12,0.785,0.512,0.525,0.351,0.384,0.996,–,1.03,1.01,1,1.13,–,1.07,1.05,0.901
NCI-H2228,0.996,0.847,0.979,0.888,0.747,0.662,0.637,0.386,0.545,0.405,0.627,0.39,0.551,0.382,0.423,0.702,0.64,0.783,0.831,0.553
H3255,0.489,0.469,0.507,0.49,0.529,0.831,0.713,0.603,0.506,0.638,0.604,0.752,0.557,0.412,0.566,0.9,0.886,0.972,0.954,0.97
HCC-15,0.702,0.67,0.757,0.694,0.71,0.806,0.617,0.324,–,0.536,0.341,0.368,0.363,0.368,0.365,0.791,0.849,0.897,0.779,0.534
NCI-H727,0.487,0.501,0.357,–,0.35,1.01,0.924,0.441,0.612,0.818,0.443,0.348,0.41,0.341,0.34,0.328,0.39,0.3,0.383,0.333
NCI-H2009,1.19,1.16,1.09,1.1,1.09,0.753,0.597,0.39,0.361,0.322,0.277,0.334,0.334,0.293,0.282,1.17,1.21,1.18,1.15,1.34
HCC-44,1.01,1.06,0.895,0.823,0.919,0.533,0.423,0.175,0.111,0.225,0.981,1.36,1.08,1.06,1.09,0.64,0.789,0.703,0.711,0.501
COR-L23,1.02,0.853,1.02,0.959,0.968,0.686,0.54,0.326,0.207,0.144,0.559,0.522,0.56,0.345,0.652,1.01,1.16,1.02,0.955,0.892
EMC-BAC-2,1.15,1.14,1.14,1.14,1.2,0.364,0.287,0.161,0.18,0.2,0.934,0.889,0.875,0.761,0.957,0.793,0.825,0.883,0.853,0.815
